Data as given in patent US20210395313A1, “PEPTIDE PAC1 ANTAGONISTS” (AMGEN INC., priority 2017, published 2021).
Where a SMILES comes first, the peptide text is derived from it. Bridges are numbered along the chain shown (N, C = ends). Where no end group is shown, it is not given here.

Legend:
rat PAC1 receptor = target: T1, rat PAC1 receptor (Rattus norvegicus, UniProt P32215); experiment: LANCE Ultra cAMP accumulation antagonist assay in RG-2 cells; type: cell-based;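 further: RG-2 rat glioma cells endogenously expressing PAC1, test peptide preincubated 30 min, then PAC1 agonist added at its EC80 for 15 min, cAMP accumulation read by LANCE Ultra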
T1 construct: SHSY-5Y (human neuroblastoma cell line) and RG-2 (rat glioma cell line) cells endogenously express human and rat PAC1 receptors, respectively; endogenous in cells; host or cells: RG-2 rat glioma cells
T1 sequence (P32215 20-523): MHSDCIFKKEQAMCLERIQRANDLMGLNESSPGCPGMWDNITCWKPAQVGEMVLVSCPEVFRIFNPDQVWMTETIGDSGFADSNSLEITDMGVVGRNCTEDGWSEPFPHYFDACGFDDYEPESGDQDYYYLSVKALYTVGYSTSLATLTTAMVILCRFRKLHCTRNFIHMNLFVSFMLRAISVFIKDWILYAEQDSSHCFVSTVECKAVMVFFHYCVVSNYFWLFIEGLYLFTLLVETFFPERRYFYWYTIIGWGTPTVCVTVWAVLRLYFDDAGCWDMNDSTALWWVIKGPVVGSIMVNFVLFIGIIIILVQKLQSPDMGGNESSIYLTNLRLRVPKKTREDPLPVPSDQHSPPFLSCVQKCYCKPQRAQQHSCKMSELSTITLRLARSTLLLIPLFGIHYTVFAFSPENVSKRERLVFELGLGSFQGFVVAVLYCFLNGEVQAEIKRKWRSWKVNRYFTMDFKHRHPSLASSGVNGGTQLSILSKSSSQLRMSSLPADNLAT

human PAC1 receptor = target: T2, human PAC1 receptor (Homo sapiens, UniProt P41586); experiment: LANCE Ultra cAMP accumulation antagonist assay in SHSY-5Y cells; type: cell-based;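 further: inhibition of cAMP accumulation evoked by PAC1 agonist at its EC80 in SHSY-5Y cells endogenously expressing receptor, 30 min preincubation then 15 min agonist, TR-FRET readout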
T2 construct: SHSY-5Y (human neuroblastoma cell line) and RG-2 (rat glioma cell line) cells endogenously express human and rat PAC1 receptors, respectively; endogenous in cells; host or cells: SHSY-5Y human neuroblastoma cells
T2 sequence (P41586 21-468): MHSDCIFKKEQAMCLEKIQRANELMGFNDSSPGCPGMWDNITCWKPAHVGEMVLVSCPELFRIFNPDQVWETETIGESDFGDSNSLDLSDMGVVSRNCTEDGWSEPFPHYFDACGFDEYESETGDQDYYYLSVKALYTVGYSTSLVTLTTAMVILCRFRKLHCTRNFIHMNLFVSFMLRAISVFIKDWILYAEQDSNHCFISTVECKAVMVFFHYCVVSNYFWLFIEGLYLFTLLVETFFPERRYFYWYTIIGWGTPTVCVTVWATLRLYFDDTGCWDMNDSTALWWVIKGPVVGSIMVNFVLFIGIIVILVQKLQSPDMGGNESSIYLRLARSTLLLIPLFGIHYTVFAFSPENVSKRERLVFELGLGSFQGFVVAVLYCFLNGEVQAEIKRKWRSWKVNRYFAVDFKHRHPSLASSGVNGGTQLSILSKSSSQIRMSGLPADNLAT

CDATCHFRKAIDDCQKQAHHSNVPGSVFKACMKQHKKRWRAG-NH2 (disulfide 1-5, 14-31) [compound 124]
IC50 (rat PAC1 receptor): 0.01 to 1 nM | IC50 (human PAC1 receptor): 0.01 to 1 nM

CEATCQFRKAIDDCARQAHHSNVPGSVFKACMKQKKKEWKAGH (disulfide 1-5, 14-31) [compound 11]
IC50 (rat PAC1 receptor): 0.01 to 1 nM | IC50 (human PAC1 receptor): 0.01 to 1 nM

CDATCQFRKAIDDCARQAHHSNVPGSVFKACIKQKKKEWKAGH (disulfide 1-5, 14-31) [compound 9]
IC50 (rat PAC1 receptor): 0.01 to 1 nM | IC50 (human PAC1 receptor): 0.01 to 1 nM

CDATCFFRKVIDDCQKQAHHSNVPGSVFKACMKQLKKRWQAG-NH2 (disulfide 1-5, 14-31) [compound 125]
IC50 (rat PAC1 receptor): 1 to 100 nM | IC50 (human PAC1 receptor): > 100 nM

CC[C@H](C)[C@H](NC(=O)[C@H](C)NC(=O)[C@H](CCCCN)NC(=O)[C@H](CCCNC(=N)N)NC(=O)[C@H](Cc1ccccc1)NC(=O)[C@H](CCC(N)=O)NC(=O)[C@@H]1CSSC[C@H](NC(C)=O)C(=O)N[C@@H](CC(=O)O)C(=O)N[C@@H](C)C(=O)N[C@@H]([C@@H](C)O)C(=O)N1)C(=O)N[C@@H](CC(=O)O)C(=O)N[C@@H](CC(=O)O)C(=O)N[C@H]1CSSC[C@@H](C(=O)N[C@@H](CCSC)C(=O)N[C@@H](CCCCN)C(=O)N[C@@H](CCC(N)=O)C(=O)N[C@@H](CCCCN)C(=O)N[C@@H](CCCCN)C(=O)N[C@@H](CCCCN)C(=O)N[C@@H](CCC(=O)O)C(=O)N[C@@H](Cc2ccccc2)C(=O)N[C@@H](CCCCN)C(=O)N[C@@H](C)C(N)=O)NC(=O)C(C)(C)NC(=O)[C@H](CCCCN)NC(=O)[C@H](Cc2ccccc2)NC(=O)[C@H](C(C)C)NC(=O)[C@H](CO)NC(=O)CNC(=O)[C@@H]2CCCN2C(=O)[C@H](C(C)C)NC(=O)[C@H](CC(N)=O)NC(=O)[C@H](CO)NC(=O)[C@H](Cc2c[nH]cn2)NC(=O)[C@H](Cc2c[nH]cn2)NC(=O)[C@H](C)NC(=O)[C@H](CCC(N)=O)NC(=O)[C@H](CCCCN)NC(=O)[C@H](CCC(N)=O)NC1=O [SEQ ID NO 249]
IC50 (rat PAC1 receptor): 0.01 to 1 nM | IC50 (human PAC1 receptor): 1 to 100 nM

CDATCQFRKAIDDCVWYSMHSNVPGSVFKACMKQKKKEFKAG-NH2 (disulfide 1-5, 14-31) [compound 133]
IC50 (rat PAC1 receptor): 0.01 to 1 nM | IC50 (human PAC1 receptor): 0.01 to 1 nM

CDATCQFRKAIDDCDRQAHHSNVPGSVFKACMKQKKKEWKAN-NH2 (disulfide 1-5, 14-31) [compound 158]
IC50 (rat PAC1 receptor): 0.01 to 1 nM | IC50 (human PAC1 receptor): 0.01 to 1 nM

CC[C@H](C)[C@H](NC(=O)[C@H](C)NC(=O)[C@H](CCCCN)NC(=O)[C@H](CCCNC(=N)N)NC(=O)[C@H](Cc1ccccc1)NC(=O)[C@H](CCC(N)=O)NC(=O)[C@@H]1CSSC[C@H](N)C(=O)N[C@@H](CC(=O)O)C(=O)N[C@@H](C)C(=O)N[C@@H]([C@@H](C)O)C(=O)N1)C(=O)N[C@@H](CC(=O)O)C(=O)N[C@@H](CC(=O)O)C(=O)N[C@H]1CSSC[C@@H](C(=O)N[C@@H](CCSC)C(=O)N[C@@H](CCCCN)C(=O)N[C@@H](CCC(N)=O)C(=O)N[C@@H](CCCCN)C(=O)N[C@@H](CCCCN)C(=O)N[C@@H](CCCCN)C(=O)N[C@@H](CCC(=O)O)C(=O)N[C@@H](Cc2ccccc2)C(=O)N[C@@H](CCCCN)C(=O)N[C@@H](C)C(=O)NCC(=O)N[C@@H](Cc2ccc(O)cc2)C(=O)O)NC(=O)[C@H](C)NC(=O)[C@H](CCCCN)NC(=O)[C@H](Cc2ccccc2)NC(=O)[C@H](C(C)C)NC(=O)[C@H](CO)NC(=O)[C@H](CO)NC(=O)[C@H](Cc2c[nH]cn2)NC(=O)[C@H](Cc2ccc(O)cc2)NC(=O)[C@H](C)NC(=O)[C@H](CCC(N)=O)NC(=O)[C@H](CCCCN)NC(=O)[C@H](C)NC1=O [compound 30] (H-CDATCQFRKAIDDCAKQAYHSSVFKACMKQKKKEFKAGY-OH; disulfide 1-5, 14-27)
IC50 (rat PAC1 receptor): 0.01 to 1 nM | IC50 (human PAC1 receptor): 0.01 to 1 nM

CDATCQFRKAIDDCDRQAYHSNVPGSVFKACMKQKKKEWKAG-NH2 (disulfide 1-5, 14-31) [compound 144]
IC50 (rat PAC1 receptor): 0.01 to 1 nM | IC50 (human PAC1 receptor): 0.01 to 1 nM

CDATCQFRKAIDDCVRQAHHSNVPGSVFKACMKQKKKEWKAH (disulfide 1-5, 14-31) [compound 99]
IC50 (rat PAC1 receptor): 0.01 to 1 nM | IC50 (human PAC1 receptor): 0.01 to 1 nM

SDATSQYRKGLVACLYKKVAMQKRYSVFKACMKQKKKEWKAG-NH2 (disulfide 14-31) [compound 426]
IC50 (rat PAC1 receptor): 0.01 to 1 nM | IC50 (human PAC1 receptor): 1 to 100 nM
